Earlier results, collected in patent publication US7816398B2, “Fatty alcohol drug conjugates” (Luitpold Pharmaceuticals, Inc., priority 2001, dated 2010).

Conditions: relative to irinotecan

In the case of `CCc1c2c(nc3ccc(O)cc13)-c1cc3c(c(=O)n1C2)COC(=O)[C@]3(O)CC` [SN-38], the “times more potent than Irinotecan” value is given as roughly 100 times.
